What is called inhibition is the change of the read-out against control, counted positive when it falls.

SMILES strings stand for the structures.

This test concerns the target T1, NO synthase (Rattus norvegicus, UniProt P29476).
T1 construct: the supernatant was then removed by decantation and frozen in portions at −80° C; from tissue; host or cells: rat cerebellum, 20,000 g supernatant of homogenate
Nature of the test: HTS-NOS assay (NOS assay): conversion of radioactive arginine, cation-exchanger filter plate. The test is classed as biochemical. To be noted: for inhibition at 10 µM: read-out: HTS-NOS assay: % inhibition (10 μM); for NOS assay % inhibition: Table 5, concentration not given. The protocol: This assay enables the percentage inhibition of NO synthase by an active ingredient to be determined by measuring the NOS activity under the action of the active ingredient. NO synthase is mixed together with radioactively labelled arginine and the active ingredient under suitable conditions. After terminating the NO-forming reaction at a given time, the amount of unconverted arginine is determined directly or indirectly. A comparison of that amount with the amount of arginine that remains in a mixture of NOS and arginine without the addition of active ingredient and under otherwise identical conditions gives the % inhibition of NO synthase by the tested active ingredient. This assay can be carried out as follows:
(a) incubation of NO synthase with labelled arginine as substrate in a reaction vessel,
(b) separation of the labelled arginine from the labelled citrulline optionally formed as a product of the enzymatic reaction, at a time at which the citrulline concentration is increasing,
(c) measurement of the amount of arginine remaining in each case.
Separation is carried out over a filter plate membrane.
This NOS assay is suitable especially for “high throughput screening” (HTS) on microtitre plates (MTP).
In this HTS-NOS assay, radioactive arginine is used as substrate. The assay volume can be chosen in the range from 25 μl to 250 μl, according to the type of microtitre plate (MTP). Depending on the source of the enzyme used, co-factors and co-enzymes are added. Incubation of the batches on this microtitre plate (assay MTP) according to step (a) is carried out at room temperature and is for 5 to 60 minutes according to the enzyme activity used (units). At the end of the incubation (step (a)), the plate is placed into a cell harvester which is equipped with a MTP having a cation-exchanger membrane as the filter base (filter MTP). All batches of the assay MTP are transferred to the filter MTP and filtered off with suction over a cation-exchanger filter plate, a paper filter charged with phosphate groups. The filter MTP is then washed with buffer or water. By means of this procedure, the arginine substrate that remains is bound to the cation exchanger, while the enzymatically formed radioactive citrulline is washed out quantitatively. After drying the filter MTP and adding scintillation liquid, the bound arginine can be counted using a scintillation counter. An uninhibited NOS reaction is reflected in low radioactivity. An inhibited enzyme reaction means that the radioactive arginine has not been converted. This means that a high level of radioactivity is found on the filter.
Rat cerebella were used as the starting tissue. The animals were anaesthetized and sacrificed, the brain tissue, the cerebellum, was removed by dissection, 1 ml of enzyme preparation buffer was added per rat cerebellum (4° C.), and disintegration was carried out using a Polytron homogeniser for 1 minute at 6000 rpm, followed by centrifugation for 15 minutes at 4° C. and 20,000 g; the supernatant was then removed by decantation and frozen in portions at −80° C. (the precipitate was discarded).
96-well MTP having a well capacity of <250 μl were used.
Pipetting sequence: see Table 1.
When the pipetting operation was complete, a cover was placed on the MTP (assay MTP), and incubation was at 25° C. (room temperature (RT)) for from 5 to 60 minutes, according to the amount and activity of the enzyme used.
The contents of the assay MTP were then transferred with the aid of a 96-well cell harvester to a 96-well cation exchanger MTP (filter MTP) and filtered off with suction. This was followed by washing once with […] of H2O (from a bath).
The plate was then dried for 1 hour at 60° C. in a drying cabinet. The underside of the filter MTP was then accurately sealed from beneath with a “back seal”. 35 μl of scintillation fluid per well were then added by means of a pipette. The upper side of the plate was also sealed with a “top seal”. […]

Turning to `[C-]#[N+]CCCCCCN(C(C)=O)c1c(-c2ccccc2OC)nc2cc(C)ccn12` [Example 281, (6-{acetyl-[2-(2-methoxy-phenyl)-7-methyl-imidazo[1,2-a]pyridin-3-yl]-amino}-hexyl)-methylidyne-ammonium], the “HTS-NOS assay: % inhibition (10 μM)” value is reported as 62%.

Consider `CC(=O)N(c1c(-c2ccncc2)nc2cc(C)ccn12)C1CCCCC1` [Example 163, N-cyclohexyl-N-(7-methyl-2-pyridin-4-yl-imidazo[1,2-a]pyridin-3-yl)-acetamide], for which the inhibition at 10 µM turned out to be 63%.

For `Cc1cc(C)n2c(NC(C)(C)C)c(-c3ccc([N+](=O)[O-])o3)nc2c1` [Example 51, Tert-butyl-[5,7-dimethyl-2-(5-nitro-furan-2-yl)-imidazo[1,2-a]pyridin-3-yl]-amine], the inhibition at 10 µM was found to be 59%.

On to `CC(=O)N(c1c(-c2cccs2)nc2cc(C)ccn12)C1CCCCC1` [Example 151, N-cyclohexyl-N-(7-methyl-2-thiophen-2-yl-imidazo[1,2-a]pyridin-3-yl)-acetamide], for which the inhibition at 10 µM was found to be 65%.

In the case of `CC(=O)N(c1c(-c2ccc(C(=O)O)s2)nc2cccc(C)n12)C1CCCCC1` [Example 234, 5-[3-(acetyl-cyclohexyl-amino)-5-methyl-imidazo[1,2-a]pyridin-2-yl]-thiophene-2-carboxylic acid], the inhibition at 10 µM was 58%.

`Cc1cc(C)n2c(NC3CCCC3)c(-c3ccc(-c4ccc(Cl)cc4)o3)nc2c1.Cl` [Example 306, {2-[5-(4-Chlorophenyl)-furan-2-yl]-5,7-dimethyl-imidazo[1,2-a]pyridin-3-yl}-cyclopentyl-amine hydrochloride]: the “NOS assay % inhibition” value was determined as 73%.

Take `C#[N+]CCCCCCNc1c(-c2ccc(OC)c(OC)c2)nc2cc(C)ccn12` [Example 109, {6-[2-(3,4-Dimethoxy-phenyl)-7-methyl-imidazo[1,2-a]pyridin-3-ylamino]-hexyl}-methylidyne-ammonium]: the “HTS-NOS assay: % inhibition (10 μM)” value was 51%.

For the compound `Cc1cc(C)n2c(NC3CCCCC3)c(-c3ccoc3)nc2c1.Cl` [Example 310, Cyclohexyl-(2-furan-3-yl-5,7-dimethyl-imidazo-[1,2-a]pyridin-3-yl)-amine hydrochloride], under “hydrochloride”, the “NOS assay % inhibition” value worked out at 52%.

As for `CCc1ccn2c(NCc3ccccc3OC)c(-c3ccc([N+](=O)[O-])o3)nc2c1` [Example 313, [7-Ethyl-2-(5-nitro-furan-2-yl)-imidazo[1,2-a]pyridin-3-yl]-(2-methoxy-benzyl)-amine], the inhibition at 10 µM is 32%.

As for `[C-]#[N+]CCCCCCNc1c(-c2cccc(O)c2)nc2c(C)cccn12` [Example 131, {6-[2-(3-Hydroxy-phenyl)-8-methyl-imidazo[1,2-a]pyridin-3-ylamino]-hexyl}-methylidyne-ammonium], the “HTS-NOS assay: % inhibition (10 μM)” value is reported as 55%.

For `COc1ccccc1-c1nc2cc(C)cc(C)n2c1Nc1c(C)cccc1C` [Example 79, (2,6-Dimethyl-phenyl)-[2-(2-methoxy-phenyl)-5,7-dimethyl-imidazo[1,2-a]pyridin-3-yl]-amine], the inhibition at 10 µM was 66%.

In the case of `Cc1ccn2c(Nc3c(C)cccc3C)c(-c3ccccc3F)nc2c1` [Example 43, (2,6-Dimethyl-phenyl)-[2-(2-fluoro-phenyl)-7-methyl-imidazo[1,2-a]pyridin-3-yl]-amine], the inhibition at 10 µM was determined as 71%.

On to `CC(=O)N(c1c(-c2c(F)cccc2Cl)nc2cccc(C)n12)C1CCCCC1` [Example 254, N-[2-(2-chloro-6-fluoro-phenyl)-5-methyl-imidazo[1,2-a]pyridin-3-yl]-N-cyclohexyl-acetamide], for which the inhibition at 10 µM is 51%.

Take `[C-]#[N+]CCCCCCNc1c(-c2ccccc2Br)nc2cc(C)ccn12` [Example 137, {6-[2-(2-Bromo-phenyl)-7-methyl-imidazo[1,2-a]pyridin-3-ylamino]-hexyl}-methylidyne-ammonium]: the “HTS-NOS assay: % inhibition (10 μM)” value was 52%.

Consider `CSc1ccc(-c2nc3cnccn3c2N(C(C)=O)C(C)(C)C)s1` [Example 233, N-tert-butyl-N-[2-(5-methylsulfanyl-thiophen-2-yl)-imidazo[1,2-a]pyrazin-3-yl]-acetamide], for which the inhibition at 10 µM came to 53%.

For the compound `CC(=O)N(c1c(-c2ccc(C3OCCO3)o2)nc2cccc(C)n12)C1CCCCC1` [Example 264, N-cyclohexyl-N-[2-(5-[1,3]dioxolan-2-yl-furan-2-yl)-5-methyl-imidazo[1,2-a]-pyridin-3-yl]-acetamide], the inhibition at 10 µM is 50%.

As for `CC(=O)N(c1c(-c2ccc(Br)o2)nc2c(C)cccn12)C(C)(C)CC(C)(C)C` [Example 271, N-[2-(5-bromo-furan-2-yl)-8-methyl-imidazo[1,2-a]pyridin-3-yl]-N-(1,1,3,3-tetramethyl-butyl)-acetamide], the inhibition at 10 µM was 51%.

As for `C#[N+]CCCCCCNc1c(-c2cccc3ccccc23)nc2cc(C)cc(C)n12` [Example 128, [6-(5,7-Dimethyl-2-naphthalen-1-yl-imidazo[1,2-a]pyridin-3-ylamino)-hexyl]-methylidyne-ammonium], the “HTS-NOS assay: % inhibition (10 μM)” value worked out at 63%.

As to `[C-]#[N+]CCCCCCN(C(C)=O)c1c(-c2ccco2)nc2cc(C)cc(C)n12` [Example 159, {6-[acetyl-(2-furan-2-yl-5,7-dimethyl-imidazo[1,2-a]pyridin-3-yl)-amino]-hexyl}-methylidyne-ammonium], the “HTS-NOS assay: % inhibition (10 μM)” value turned out to be 61%.

In the case of `COc1ccc(-c2nc3cc(C)ccn3c2N(C(C)=O)c2c(C)cccc2C)cc1OC` [Example 207, N-[2-(3,4-dimethoxy-phenyl)-7-methyl-imidazo[1,2-a]pyridin-3-yl]-N-(2,6-dimethyl-phenyl)-acetamide], the inhibition at 10 µM was determined as 51%.

For `CC(=O)N(c1c(-c2cccc(Cl)c2Cl)nc2cc(C)cc(C)n12)C(C)(C)CC(C)(C)C` [Example 193, N-[2-(2,3-dichloro-phenyl)-5,7-dimethyl-imidazo[1,2-a]pyridin-3-yl]-N-(1,1,3,3-tetramethyl-butyl)-acetamide], the inhibition at 10 µM stood at 55%.

`Cc1ccn2c(NC3CCCCC3)c(-c3cc(C)c(C)o3)nc2c1` [Example 105, Cyclohexyl-[2-(4,5-dimethyl-furan-2-yl)-7-methyl-imidazo[1,2-a]pyridin-3-yl]-amine]: the inhibition at 10 µM came out at 65%.

As to `Cc1ccn2c(NC3CCCCC3)c(-c3ccc([N+](=O)[O-])o3)nc2c1` [Example 99, Cyclohexyl-[7-methyl-2-(5-nitro-furan-2-yl)-imidazo[1,2-a]pyridin-3-yl]-amine], the inhibition at 10 µM was determined as 66%.

For `CCc1ccn2c(Nc3ccc(F)c(Cl)c3)c(-c3ccc(-c4cccc(Cl)c4)o3)nc2c1` [Example 320, (3-Chloro-4-fluorophenyl)-{2-[5-(3-chloro-phenyl)-furan-2-yl]-7-ethyl-imidazo[1,2-a]-pyridin-3-yl}-amine], the inhibition at 10 µM amounted to 52%.

In the case of `COC(=O)CN(C(C)=O)c1c(-c2ccccc2C)nc2cnccn12` [Example 276, [acetyl-(2-o-tolyl-imidazo[1,2-a]pyrazin-3-yl)-amino]-acetic acid methyl ester], the inhibition at 10 µM turned out to be 50%.

On to `Cc1ccn2c(NC(C)(C)CC(C)(C)C)c(-c3ccc(C(=O)O)o3)nc2c1` [Example 81, 5-[7-Methyl-3-(1,1,3,3-tetramethyl-butylamino)-imidazo[1,2-a]pyridin-2-yl]-furan-2-carboxylic acid], for which the inhibition at 10 µM was 60%.

Regarding `C#[N+]CCCCCCNc1c(-c2ccccc2C(F)(F)F)nc2cc(C)cc(C)n12` [Example 75, {6-[5,7-Dimethyl-2-(2-trifluorO-methyl-phenyl)-imidazo[1,2-a]pyridin-3-ylamino]-hexyl}-methylidyne-ammonium], the “HTS-NOS assay: % inhibition (10 μM)” value is given as 56%.
